In patent US6413947B1, “Anilide derivative, production and use thereof” (Takeda Chemical Industries, Ltd., priority 1997, dated 2002):
Counter-ions that a name gives are not always drawn.

Which melting point does the source give for CN(C)c1ccc(-c2ccc3c(c2)C=C(C(=O)Nc2ccc(CP4(=O)CCCCC4)cc2)CCO3)cc1.Cl here?
The melting point was 162 to 163 °C.

With Cc1ccc(-c2ccc3c(c2)C=C(C(=O)Nc2ccc(C(=O)C4CCCCN4C)cc2)CCO3)cc1 (stereo not shown) as the compound, how does the melting point read?
The melting point was 162 to 163 °C.

Which melting point does the source give for Cc1ccc(-c2ccc3c(c2)C=C(C(=O)Nc2ccc(C[N+](C)(C)C4CCOCC4)cc2)CCO3)cc1.[Cl-] here?
Its melting point is 232 to 237 °C (dec.).

With COc1ccc(CCN(C)Cc2ccc(NC(=O)/C=C/c3cccc(-c4ccc(C)cc4)c3)cc2)cc1OC.Cl as the compound, how does the melting point read?
The melting point was 214 to 217 °C.

Which melting point does the source give for Cc1ccc(-c2ccc3c(c2)C=C(C(=O)Nc2ccc(C[N+]4(C)CCCCC4)cc2)CCO3)cc1 (as salt: chloride) [Compound 97, 1—(N-(7—(4-methylphenyl)-2,3-dihydro-1-benzoxepin-4-carbonyl)-4-aminobenzyl)-1-methylpiperidinium chloride] here?
Its melting point is 231 to 232 °C.

Which melting point does the source give for CCOc1ccc(-c2ccc3c(c2)C=C(C(=O)Nc2ccc(C[N+](C)(C)C4CCOCC4)cc2)CCO3)cc1 (as salt: chloride) [Compound 250, N-(4-(((7-(4-ethoxyphenyl)-2,3-dihydro-1-benzoxepin-4-yl)carbonyl)amino)benzyl)-N,N-dimethyl-N-(4-tetrahydropyranyl)ammonium chloride] here?
The melting point was 200 to 204 °C.

For Cc1ccc(-c2ccc3c(c2)C=C(C(=O)Nc2ccc(C[N+]4(C)CCCCC4)cc2)CC3)cc1 (as salt: iodide) [Compound 16, 1-methyl-1-[4-[7—(4-methylphenyl)-3,4-dihydronaphthalene-2-carboxamido]benzyl]piperidinium iodide], which melting point is on record?
The melting point was 202 to 204 °C.

For Cc1ccc(-c2cccc(/C=C/C(=O)Nc3ccc(C[N+]4(C)CCCCC4)cc3)c2)cc1 (as salt: iodide) [Compound 72, (E)-1-methyl-1-[4—(3—(4-methylphenyl)cinnamamido)benzyl]-piperidinium iodide], which melting point is on record?
Its melting point is 176 to 178 °C.

Which melting point does the source give for Cc1ccc(-c2ccc3c(c2)C=C(C(=O)Nc2ccc(C[N+]4(C)CCCCC4)cc2)CCC3)cc1 (as salt: iodide) [Compound 92, 1—(N-(2—(4-methylphenyl)-6,7-dihydro-5H-benzocycloheptene-8-carbonyl)-4-aminobenzyl)-1-methylpiperidinium iodide] here?
The melting point was 220 to 221 °C (dec.).

With Cc1ccc(-c2ccc3c(c2)C=C(C(=O)Nc2ccc(C[N+]4(C)CCCCC4)cc2)CCS3)cc1 (as salt: iodide) [Compound 94, 1—(N-(7—(4-methylphenyl)-2,3-dihydro-1-benzo-thiepine-4-carbonyl)-4-aminobenzyl)-1-methyl-piperidinium iodide] as the compound, how does the melting point read?
Its melting point is 196 to 197 °C.

With Cc1ccc(-c2ccc3c(c2)C=C(C(=O)Nc2ccc(C[N+]4(C)CCCCC4)cc2)CCO3)cc1 (as salt: iodide) [Compound 96, 1—(N-(7—(4-methylphenyl)-2,3-dihydro-1-benzoxepin-4-carbonyl)-4-aminobenzyl)-1-methylpiperidinium iodide] as the compound, how does the melting point read?
Its melting point is 227 to 228 °C (dec.).

With O=C(Nc1ccc(CN2CCCCC2)cc1)C1=Cc2cc(C3CCCCC3)ccc2CC1 [Compound 1, 7-cyclohexyl-N-[4—(piperidinomethyl)-phenyl]-3,4-dihydronaphthalene-2-carboxamide] as the compound, how does the melting point read?
The melting point was 180 to 181 °C.

With O=C(Nc1ccc(CN2CCCCC2)cc1)C1=Cc2cc(-c3ccccc3)ccc2CC1 [Compound 4, 7-phenyl-N-[4—(piperidinomethyl)phenyl]-3,4-dihydronaphthalene-2-carboxamide] as the compound, how does the melting point read?
The melting point was 163 to 164 °C.

Which melting point does the source give for CN(C)Cc1ccc(NC(=O)C2=Cc3cc(-c4ccccc4)ccc3CC2)cc1 [Compound 6, N-[4—(dimethylaminomethyl)-phenyl]-7-phenyl-3,4-dihydro-naphthalene-2-carboxamide] here?
The melting point was 182 to 184 °C.

For O=C(Nc1ccc(CN2CCOCC2)cc1)C1=Cc2cc(-c3ccccc3)ccc2CC1 [Compound 8, N-[4—(morpholinomethyl)-phenyl]-7-phenyl-3,4-dihydronaphthalene-2-carboxamide], which melting point is on record?
The melting point was 186 to 187 °C.

Which melting point does the source give for O=C(Nc1ccc(CCN2CCCCC2)cc1)C1=Cc2cc(-c3ccccc3)ccc2CC1 [Compound 9, 7-phenyl-N-[4—(2-piperidinoethyl)phenyl]-3,4-dihydro-naphthalene-2-carboxamide] here?
Its melting point is 157 to 159 °C.

For Cc1ccc(-c2ccc3c(c2)C=C(C(=O)Nc2ccc(CN4CCCCC4)cc2)CC3)cc1 [Compound 14, 7—(4-methylphenyl)-N-[4—(piperidinomethyl)phenyl]-3,4-dihydronaphthalene-2-carboxamide], which melting point is on record?
The melting point was 187 to 189 °C.

For O=C(Nc1ccc(CN2CCCCC2)cc1)C1=Cc2cc(-c3ccc(F)cc3)ccc2CC1 [Compound 15, 7—(4-fluorophenyl)-N-[4—(piperidinomethyl)phenyl]-3,4-dihydronaphthalene-2-carboxamide], which melting point is on record?
The melting point was 175 to 176 °C.

For Cc1ccc(-c2ccc3c(c2)C=C(C(=O)Nc2ccc(CN4CCC(Cc5ccccc5)CC4)cc2)CC3)cc1 [Compound 35, N-[4—(4-benzyl-piperidinomethyl)phenyl]-7—(4-methylphenyl)-3,4-dihydronaphthalene-2-carboxamide], which melting point is on record?
The melting point was 199 to 201 °C.

For COc1ccccc1N1CCN(Cc2ccc(NC(=O)C3=Cc4cc(-c5ccc(C)cc5)ccc4CC3)cc2)CC1 [Compound 41, N-[4-[1—(2-methoxyphenyl)-4-piperazinylmethyl]phenyl]-7—(4-methylphenyl)-3,4-dihydronaphthalene-2-carboxamide], which melting point is on record?
Its melting point is 202 to 205 °C.

With Cc1ccc(-c2ccc3c(c2)C=C(C(=O)Nc2ccc(CN4CCN(c5ncccn5)CC4)cc2)CC3)cc1 [Compound 42, 7—(4-methylphenyl)-N-[4-[1—(2-pyrimidyl)-4-piperazinylmethyl]-phenyl]-3,4-dihydronaphthalene-2-carboxamide] as the compound, how does the melting point read?
The melting point was 203 to 204 °C.

For COc1cc(CN2CCN(Cc3ccc(NC(=O)C4=Cc5cc(-c6ccc(C)cc6)ccc5CC4)cc3)CC2)cc(OC)c1OC [Compound 45, N-[4-[1—(3,4,5-trimethoxybenzyl)-4-piperazinylmethyl]-phenyl]-7—(4-methylphenyl)-3,4-dihydronaphthalene-2-carboxamide], which melting point is on record?
Its melting point is 143 to 144 °C.

For Cc1ccc(-c2ccc3c(c2)C=C(C(=O)Nc2ccc(CN4CCN(CCO)CC4)cc2)CC3)cc1 [Compound 46, N-[4-[1—(2-hydroxyethyl)-4-piperazinylmethyl]phenyl]-7—(4-methylphenyl)-3,4-dihydronaphthalene-2-carboxamide], which melting point is on record?
Its melting point is 185 to 187 °C.

Which melting point does the source give for Cc1ccc(-c2ccc3c(c2)C=C(C(=O)Nc2ccc(CNc4cccnc4)cc2)CC3)cc1 [Compound 47, 7—(4-methylphenyl)-N-[4-[N-(3-pyridyl)aminomethyl]phenyl]-3,4-dihydronaphthalene-2-carboxamide] here?
The melting point was 212 to 214 °C.

With Cc1ccc(-c2ccc3c(c2)C=C(C(=O)Nc2ccc(CNC(CO)CO)cc2)CC3)cc1 [Compound 48, N-[4-[(1,3-dihydroxy-2-propyl)aminomethyl]phenyl]-7—(4-methylphenyl)-3,4-dihydronaphthalene-2-carboxamide] as the compound, how does the melting point read?
Its melting point is 189 to 193 °C.

With Cc1ccc(-c2ccc3c(c2)C=C(C(=O)Nc2ccc(CN4CCC(O)CC4)cc2)CC3)cc1 [Compound 49, N-[4—(4-hydroxypiperidinomethyl)phenyl]-7—(4-methylphenyl)-3,4-dihydronaphthalene-2-carboxamide] as the compound, how does the melting point read?
Its melting point is 223 to 224 °C.

For Cc1ccc(-c2ccc3c(c2)C=C(C(=O)Nc2ccc(CN4CCSCC4)cc2)CC3)cc1 [Compound 50, 7—(4-methylphenyl)-N-[4—(thiomorpholinomethyl)phenyl]-3,4-dihydro-naphthalene-2-carboxamide], which melting point is on record?
The melting point was 178 to 180 °C.

With Cc1ccc(-c2ccc3c(c2)C=C(C(=O)Nc2ccc(CN(CCO)CCO)cc2)CC3)cc1 [Compound 51, N-[4-[N,N-bis(2-hydroxyethyl)-aminomethyl]phenyl]-7—(4-methylphenyl)-3,4-dihydronaphthalene-2-carboxamide] as the compound, how does the melting point read?
The melting point was 150 to 151 °C.

With Cc1ccc(-c2ccc3c(c2)C=C(C(=O)Nc2ccc(CSC4CCCCC4)cc2)CCO3)cc1 [Compound 53, N-(4—(cyclohexylthiomethyl)-phenyl)-7—(4-methylphenyl)-2,3-dihydro-1-benzoxepine-4-carboxamide] as the compound, how does the melting point read?
The melting point was 161 to 162 °C.

With Cc1ccc(-c2cccc(/C=C/C(=O)Nc3ccc(CN4CCN(Cc5ccc6c(c5)OCO6)CC4)cc3)c2)cc1 [Compound 57, (E)-N-[4-[1—(3,4-methylenedioxybenzyl)-4-piperazinylmethyl]phenyl]-3—(4-methylphenyl)cinnamamide] as the compound, how does the melting point read?
The melting point was 204 to 207 °C.

With O=C(Nc1ccc(CN2CCCCC2)cc1)c1ccc2ccc(-c3ccccc3)cc2c1 [Compound 58, N-[4—(piperidinomethyl)phenyl]-7-phenylnaphthalene-2-carboxamide] as the compound, how does the melting point read?
Its melting point is 177 to 178 °C.

With Cc1ccc(-c2ccc3c(c2)C=C(C(=O)Nc2ccc(CN4CCCCC4)cc2)C3)cc1 [Compound 60, N-[4—(piperidinomethyl)phenyl]-5—(4-methylphenyl)indene-2-carboxamide] as the compound, how does the melting point read?
Its melting point is 219 to 220 °C.

For COc1ccc(N2CCN(Cc3ccc(NC(=O)/C=C/c4cccc(-c5ccc(C)cc5)c4)cc3)CC2)cc1 [Compound 62, (E)-N-[4-[1—(4-methoxy-phenyl)-4-piperazinylmethyl]phenyl]-3—(4-methylphenyl)cinnamamide], which melting point is on record?
Its melting point is 207 to 208 °C.

With Cc1ccc(-c2cccc(/C=C/C(=O)Nc3ccc(CN(C)CC#N)cc3)c2)cc1 [Compound 64, (E)-N-[4-[N-(cyanomethyl)-N-methylaminomethyl]phenyl]-3—(4-methylphenyl)cinnamamide] as the compound, how does the melting point read?
The melting point was 163 to 165 °C.

With Cc1ccc(-c2cccc(/C=C/C(=O)Nc3ccc(Cn4ccnc4)cc3)c2)cc1 [Compound 65, (E)-N-[4-[(imidazol-1-yl)methyl]phenyl]-3—(4-methylphenyl)cinnamamide] as the compound, how does the melting point read?
The melting point was 198 to 200 °C.

For Cc1ccc(-c2cccc(/C=C/C(=O)Nc3ccc(CN4CCCC(CO)C4)cc3)c2)cc1 (stereo not shown) [Compound 66, (E)-N-[4-[3—(hydroxy-methyl)piperidinomethyl]phenyl]-3—(4-methylphenyl)cinnamamide], which melting point is on record?
Its melting point is 153 to 154 °C.

Which melting point does the source give for Cc1ccc(-c2cccc(/C=C/C(=O)Nc3ccc(CN4CCCC(O)C4)cc3)c2)cc1 (stereo not shown) [Compound 67, (E)-N-[4—(3-hydroxypiperidino-methyl)phenyl]-3—(4-methylphenyl)cinnamamide] here?
The melting point was 132 to 134 °C.
